Laboratory results as given in patent publication US12054510B2, “2′ and/or 5′ amino-acid ester phosphoramidate 3′-deoxy adenosine derivatives as anti-cancer compounds” (Nucana plc, priority 2014, dated 2024).

Columns and labels:
Type in all cases: cell-based
[1] = system: leukaemic stem cell (LSC) compartment within the KG1a cell line; assay: Immunophenotypic identification of the leukaemic stem cell compartment; conditions: 72 h; for targeting of LSCs (LSC as percentage of all viable cells left in culture): FIG. 2-4; for preferential targeting of LSCs compared with the parent nucleoside: compound A at 1 mM and above
Experimental: KG1a cells were cultured for 72 h in the presence of a wide range of concentrations of each compound assayed. Cells were then harvested and labelled with a cocktail of anti-lineage antibodies (PE-cy7), anti-CD34 (FITC), anti-CD38 (PE) and anti-CD123 (PERCP cy5). The sub-population expressing a LSC phenotype were subsequently identified and were expressed as a percentage of all viable cells left in the culture. The percentages of stem cells remaining were then plotted on a dose-response graph and the effects of the compounds were compared with each other, and with the parent nucleoside.
The data obtained in these experiments were evaluated using one way ANOVA. All data was confirmed as Gaussian or a Gaussian approximation using the omnibus K2 test. LD50 values were calculated from the non-linear regression and line of best-fit analysis of the sigmoidal dose-response curves. All statistical analyses were performed using Graphpad Prism 6.0 software (Graphpad Software Inc., San Diego, CA).

CCRF-CEM = assay: CellTiterGlo cell viability assay, initial screening
Experimental: (§1) In vitro viability assays were performed to assess the effects of compounds on cell viability in 7 selected cell lines over 72 hr using the CellTiterGlo (CTG, Promega-G7573) assay. The tests were performed in duplicates with treatment of compounds at 9 points, 3.16 folds titration in 96 well plates over ˜72 hr. The compound starting concentrations were […]. Cell viability assay using CellTiterGlo in 96-well plate were performed. The compound treatment was 72 hrs, under standard growth conditions, and in duplicate. Compounds were dissolved to 40 mM with thawed […]. Compounds were serially diluted at 3.16 fold in thawed DMSO, and warmed to 37° C. before being dissolved in media (2 μl+200 μl). After compounds were dissolved in media (media was also warmed to 37° C.). Media containing compounds were warmed to 37° C. in incubator and then compounds in media were added to cell plates (50 μl+50 μl), in duplicates. The compounds final concentrations were from […] to 19.9 nM. All compound solubilities were checked and recorded again, then the plates were transferred to CO2 tissue culture incubator immediately and incubated for 3 days. DMSO final concentration is 0.5%.

K562 = assay: as above; conditions: 72 hr, Table II
Experimental: as §1

MCF-7 = assay: as above; conditions: MCF-7; 72 hr; Table II
Experimental: as §1

HepG2 = assay: as above; conditions: for M.I. %: maximum percentage inhibition of cell viability: HepG2, 72 hr, Table II
Experimental: as §1

KG-1 = assay: as above
Experimental: as §1

MOLT-4 = assay: as above
Experimental: as §1

HL-60 = assay: as above; conditions: for IC50: Homo sapiens, HL-60, 72 h, read-out: IC50 (relative IC50)
Experimental: as §1

Compound | targeting of LSCs (LSC as percentage of all viable cells left in culture) [1] | preferential targeting of LSCs compared with the parent nucleoside [1] | M.I. %: maximum percentage inhibition of cell viability (K562) [%] | M.I. %: maximum percentage inhibition of cell viability (MCF-7) [%] | M.I. %: maximum percentage inhibition of cell viability (HepG2) [%] | M.I. %: maximum percentage inhibition of cell viability (CCRF-CEM; CCRF-CEM, 72 hr, Table II) [%] | M.I. %: maximum percentage inhibition of cell viability (KG-1; KG-1, 72 hr, Table II) [%] | M.I. %: maximum percentage inhibition of cell viability (MOLT-4; MOLT-4, 72 hr, Table II) [%] | M.I. %: maximum percentage inhibition of cell viability (HL-60; HL-60, 72 hr, Table II) [%] | other results
C[C@H](NP(=O)(OC[C@@H]1C[C@@H](O)[C@H](n2cnc3c(N)nc(F)nc32)O1)Oc1ccccc1)C(=O)OCc1ccccc1 (mixture of isomers) [P, (2S)-benzyl 2-(((((2S,4R,5R)-5-(6-amino-2-fluoro-9H-purin-9-yl)-4-hydroxytetrahydrofuran-2-yl)methoxy)(phenoxy)phosphoryl)amino)propanoate] | preferential targeting of LSCs | significantly improved when compared with the parental nucleoside |  |  |  |  |  |  |  | 
C[C@H](NP(=O)(N[C@@H](C)C(=O)OCc1ccccc1)OC[C@@H]1CC(O)[C@H](n2cnc3c(N)ncnc32)O1)C(=O)OCc1ccccc1 (stereo in doubt) [Compound J, Benzyl 2-[({[5-(6-amino-9H-purin-9-yl)-4-hydroxyoxolan-2-yl]methoxy}({[1-(benzyloxy)-1-oxopropan-2-yl]amino})phosphoryl)amino]propanoate] |  |  | 97 | 97 | 55 |  |  |  |  | M.I. %: maximum percentage inhibition of cell viability (CCRF-CEM; human, 72 h): 100%; M.I. %: maximum percentage inhibition of cell viability (KG-1; human, 72 h): 29%; M.I. %: maximum percentage inhibition of cell viability (MOLT-4; human, 72 h): 100%; M.I. %: maximum percentage inhibition of cell viability (HL-60; human, 72 h): 98%
C[C@H](NP(=O)(Oc1cccc2ccccc12)O[C@@H]1C[C@@H](CO)O[C@H]1n1cnc2c(N)ncnc21)C(=O)OCc1ccccc1 (stereo partly drawn) [Compound I, (2S)-benzyl 2-(((((2R,3R,5S)-2-(6-amino-9H-purin-9-yl)-5-(hydroxymethyl)tetrahydro-furan-3-yl)oxy)(naphthalen-1-yloxy)phosphoryl)amino)propanoate] |  |  | 87 | 99 | 90 | 99 | 93 | 100 | 99 | 
C[C@H](NP(=O)(OC[C@@H]1C[C@H](O)[C@H](n2cnc3c(N)nc(F)nc32)O1)Oc1cccc2ccccc12)C(=O)OCc1ccccc1 (stereo partly drawn) [Compound O] | able to bring about a reduction in the proportion of LSCs | not significantly different to 2-F-Cordycepin |  |  |  |  |  |  |  | 
CCCCCOC(=O)[C@H](CC(C)C)NP(=O)(OC[C@@H]1C[C@H](O)[C@H](n2cnc3c(N)nc(F)nc32)O1)Oc1cccc2ccccc12 (stereo partly drawn) [Compound Q, 2-Fluoro-3′-deoxyadenosine-5′-O-[1-naphthyhl(1-pentyloxy-L-leucinyl)]phosphate] | preferential targeting of LSCs | significantly improved when compared with the parental nucleoside |  |  |  |  |  |  |  | 
C[C@H](NP(=O)(Oc1ccccc1)O[C@@H]1C[C@@H](CO)O[C@H]1n1cnc2c(N)ncnc21)C(=O)OCc1ccccc1 (stereo partly drawn) [G, (2S)-benzyl 2-(((((2R,3R,5S)-2-(6-amino-9H-purin-9-yl)-5-(hydroxymethyl)tetrahydro-furan-3-yl)oxy)(phenoxy)phosphoryl)amino)propanoate] |  |  | 78 | 97 | 67 | 65 | 63 | 75 | 57 | IC50 (HepG2; Homo sapiens, HepG2, 72 h, read-out: IC50 (relative IC50)): 15 to 100 µM; IC50 (HL-60): 15 to 100 µM
C[C@H](NP(=O)(OC[C@@H]1C[C@@H](OP(=O)(N[C@@H](C)C(=O)OCc2ccccc2)Oc2ccccc2)[C@H](n2cnc3c(N)ncnc32)O1)Oc1ccccc1)C(=O)OCc1ccccc1 (stereo partly drawn) [H, Benzyl 2-(((((2S,4R,5R)-5-(6-amino-9H-purin-9-yl)-4-((((1-(benzyloxy)-1-oxopropan-2-yl)amino)(phenoxy)phosphoryl)oxy)tetrahydrofuran-2-yl)methoxy)(phenoxy)phosphoryl)-amino)propanoate] |  |  | 89 | 94 | 55 | 100 | 69 | 100 | 80 | IC50 (HL-60): 15 to 100 µM
CCCCCCOC(=O)[C@H](C)NP(=O)(OC[C@@H]1C[C@@H](O)[C@H](n2cnc3c(N)nc(F)nc32)O1)Oc1ccccc1 (stereo partly drawn) [R, (2S)-hexyl 2-(((((2S,4R,5R)-5-(6-amino-2-fluoro-9H-purin-9-yl)-4-hydroxytetrahydrofuran-2-yl)methoxy)(phenoxy)phosphoryl)amino)propanoate] | preferential targeting of LSCs | significantly improved when compared with the parental nucleoside |  |  |  |  |  |  |  | 
